Source: patent US20260355191A1, “PAN-RAS INHIBITOR COMPOUND” (ADLAI NORTYE BIOPHARMA CO., LTD., priority 2024, published 2026)

Key:
[1] = Pharmacokinetic study in mice; format: in vivo; conditions: mouse, male CD-1 mice; for bioavailability: blood; for bioavailability / AUC / Cmax: po; for Vd / clearance: iv; for Vd / clearance / AUC / Cmax: whole blood
Experimental: To evaluate the pharmacokinetic behavior of the compounds of the disclosure in male CD-1 mice, the test compounds were dissolved in a solvent (5% DMSO/10% solutol/85% water). Twelve male CD-1 mice were divided into two groups, with six animals in each group. Group 1 received a single intravenous bolus (i.v.) administration of the compound, and Group 2 received a single oral (p.o.) administration of the compound. Whole blood samples were collected at 0.083 h (intravenous group only), 0.25, 0.5, 1, 2, 4, 8, and 24 hours after dosing. The concentration of the test compound in whole blood samples was determined using the LC-MS/MS method.

HCT116 = experiment: In vitro cell proliferation inhibition assay (CellTiter-Glo), HCT116; format: cell-based; conditions: HCT116, KRAS (p.G13D), 72 h; read-out: IC50, antiproliferative activity
Experimental: (§1) Due to the diversity of RAS mutations, and in order to evaluate the activity of the compounds in different RAS mutant cell lines, we selected cell lines with KRAS^G12D, KRAS^G12V, KRAS^G12c, NRAS^q61L, KRAS^G13D, KRAS^G12R, and KRAS^WT mutations (see the table below for in vitro activity evaluation and screening of the compounds.
(§2) According to the doubling time of different cell lines, different numbers of cells (1000-5000 cells/well) were seeded into 96-well plates containing 180 μL of the corresponding culture medium, and incubated overnight in a cell incubator at 37 °C with 5% C02. On the following day, the test compounds were pre-diluted in the culture medium in a 3-fold serial dilution series, with the highest concentration being […], resulting in 10 concentration gradients in total. Subsequently, 20 μL of culture medium containing the compounds at different concentrations was added to the cells in the 96-well plates, ensuring a final compound concentration of up to 10 μM, with 10 concentrations in 3-fold dilution. After co-incubation of the cells with the compounds for 72 h, the 96-well plates were removed from the incubator and equilibrated at room temperature for 30 min. Then, 25 μL of CellTiter-Glo® Reagent was added to each well and mixed thoroughly, followed by incubation at room temperature for 10 min. Subsequently, 100 μL of the samples was transferred to white 96-well plates (OptiPlate™-96, PerkinElmer), and […] signal values were read using a multifunctional microplate reader (SpectraMax i3x, Molecular Devices). The signal values were then normalized, and curve fitting was performed using a four-parameter logistic regression equation to calculate the half maximal inhibitory concentration (IC50) of the compounds against the cell lines.

HepG2 = experiment: In vitro cell proliferation inhibition assay (CellTiter-Glo), HepG2; format: cell-based; conditions: HepG2, NRAS (p.Q61L), 72 h; read-out: IC50, antiproliferative activity
Experimental: as §1, §2

[2] = target: ternary complex comprising RAS and CypA; KRAS^G12V (Homo sapiens, UniProt P01116+P62937, G12V); experiment: Ternary complex binding assay (BLI), KRAS G12V; conditions: GMPPNP-loaded KRAS^G12V, fixed concentration of CypA, pH 7.4, read-out: KD2 (ternary complex equilibrium dissociation constant)
ternary complex comprising RAS and CypA; KRAS^G12V, sequence (P01116 1-188 isoform P01116-2 G12V): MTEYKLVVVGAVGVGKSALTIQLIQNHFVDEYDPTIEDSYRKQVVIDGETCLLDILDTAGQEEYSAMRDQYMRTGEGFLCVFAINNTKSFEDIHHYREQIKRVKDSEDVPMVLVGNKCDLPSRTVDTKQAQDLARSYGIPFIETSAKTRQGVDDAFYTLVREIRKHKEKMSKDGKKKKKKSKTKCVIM
ternary complex comprising RAS and CypA; KRAS^G12V, sequence (P62937 whole entry): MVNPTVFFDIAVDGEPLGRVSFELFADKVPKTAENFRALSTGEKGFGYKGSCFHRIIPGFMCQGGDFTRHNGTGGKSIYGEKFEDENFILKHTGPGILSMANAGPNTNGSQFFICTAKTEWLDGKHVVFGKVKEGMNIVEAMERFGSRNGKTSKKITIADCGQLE
Experimental: (§3) To evaluate the ability of the test compounds to induce the formation of a ternary complex comprising RAS and CypA, we employed a Bio-layer Interferometry (BLI) method (Octet R8) to monitor the binding kinetics among the compounds, RAS, and CypA, and to calculate the affinity of the ternary complex. GMPPNP was first incubated with RAS protein to load GMPPNP onto RAS. His-tagged RAS proteins with different mutations were then immobilized on NTA sensors, followed by baseline equilibration for 120 seconds in the assay buffer (20 mM HEPES, pH 7.4, 150 mM NaCl, 5 mM MgCl2, 1 mM TCEP, 5 μM GMPPNP, 0.01% Tween 20). The sensors were subsequently exposed to buffer containing various concentrations of the compounds and a fixed concentration of CypA, and the association phase of ternary complex formation was monitored in real time. Once binding reached a plateau, the sensors were transferred to compound- and CypA-free buffer to measure the dissociation phase. To ensure accuracy, DMSO normalization was performed, buffer composition was optimized to reduce non-specific binding, and both negative and positive controls were employed to verify assay specificity. Data were processed using Octet Analysis Studio 13.0, analyzed using a 1:1 binding model, and the association rate constant (ka), dissociation rate constant (kdis), and equilibrium dissociation constant (KD2) were calculated.

MV411 = experiment: In vitro cell proliferation inhibition assay (CellTiter-Glo), MV411; format: cell-based; conditions: MV411, KRAS wild type, 72 h; read-out: IC50, antiproliferative activity
Experimental: as §2

[3] = target: ternary complex comprising RAS and CypA; KRAS^WT (Homo sapiens, UniProt P01116+P62937); experiment: Ternary complex binding assay (BLI), KRAS WT; conditions: GMPPNP-loaded KRAS^WT, fixed concentration of CypA, pH 7.4, read-out: KD2 (ternary complex equilibrium dissociation constant)
ternary complex comprising RAS and CypA; KRAS^WT, sequence (P01116 1-188 isoform P01116-2): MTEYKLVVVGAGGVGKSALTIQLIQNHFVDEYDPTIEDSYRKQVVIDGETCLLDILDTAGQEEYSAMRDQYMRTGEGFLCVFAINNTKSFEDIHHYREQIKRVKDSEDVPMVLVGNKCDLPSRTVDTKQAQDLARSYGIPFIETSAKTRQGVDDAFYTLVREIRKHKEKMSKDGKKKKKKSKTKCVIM
ternary complex comprising RAS and CypA; KRAS^WT, sequence (P62937 whole entry): as the sequence (P62937 whole entry) above
Experimental: as §3

SW480 = experiment: In vitro cell proliferation inhibition assay (CellTiter-Glo), SW480; format: cell-based; conditions: SW480, KRAS (p.G12V), 72 h; read-out: IC50, antiproliferative activity
Experimental: as §1, §2

H358 = experiment: In vitro cell proliferation inhibition assay (CellTiter-Glo), H358; format: cell-based; conditions: H358, KRAS (p.G12C), 72 h; read-out: IC50, antiproliferative activity
Experimental: as §1, §2

[4] = target: ternary complex comprising RAS and CypA; KRAS^G12D (Homo sapiens, UniProt P01116+P62937, G12D); experiment: Ternary complex binding assay (BLI), KRAS G12D; conditions: GMPPNP-loaded KRAS^G12D, fixed concentration of CypA, pH 7.4, read-out: KD2 (ternary complex equilibrium dissociation constant)
ternary complex comprising RAS and CypA; KRAS^G12D, sequence (P01116 1-188 isoform P01116-2 G12D): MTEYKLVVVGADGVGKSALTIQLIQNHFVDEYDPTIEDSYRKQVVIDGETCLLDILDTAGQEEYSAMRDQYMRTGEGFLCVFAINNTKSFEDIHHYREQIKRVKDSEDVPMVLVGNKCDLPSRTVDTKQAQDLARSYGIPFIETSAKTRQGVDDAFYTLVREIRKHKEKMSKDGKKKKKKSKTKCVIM
ternary complex comprising RAS and CypA; KRAS^G12D, sequence (P62937 whole entry): as the sequence (P62937 whole entry) above
Experimental: as §3

PSN1 = experiment: In vitro cell proliferation inhibition assay (CellTiter-Glo), PSN1; format: cell-based; conditions: PSN1, KRAS (p.G12R), 72 h; read-out: IC50, antiproliferative activity
Experimental: as §1, §2

cyclophilin A (CypA) = target: T1, cyclophilin A (CypA) (Homo sapiens, UniProt P62937); experiment: Binary complex binding assay (BLI); conditions: His-tagged CypA, pH 7.4, 1:1 binding model; for Kd: read-out: KD1 (binary complex equilibrium dissociation constant); for kon: read-out: ka (association rate constant); for koff: read-out: kdis (dissociation rate constant)
T1 construct: purchased R&D 3589-CAB
T1 sequence (P62937 whole entry): as above
Experimental: To evaluate the binding ability of the test compounds to cyclophilin A (CypA), we employed a Bio-layer Interferometry (BLI) method (Octet R8) to monitor the binding kinetics between the compounds and CypA, and to calculate the affinity of the binary complex. His-tagged CypA protein (3589-CAB, R&D) was first immobilized on an NTA sensor, followed by baseline equilibration for 120 seconds in the assay buffer (20 mM HEPES, pH 7.4, 150 mM NaCl, 5 mM MgCl2, 1 mM TCEP, 0.01% Tween 20). The sensor was then exposed to buffer solutions containing different concentrations of the compounds to monitor the association process in real time. When the high-concentration compound binding reached a plateau, the sensor was transferred to compound-free buffer to measure the dissociation process. To ensure data accuracy, DMSO normalization was performed, non-specific binding was minimized by buffer optimization, and negative and positive controls were set to verify assay specificity. Data were processed using Octet Analysis Studio 13.0, analyzed using a 1:1 binding model, and the association rate constant (ka), dissociation rate constant (kdis), and equilibrium dissociation constant (KD1) were calculated.

AsPC-1 = experiment: In vitro cell proliferation inhibition assay (CellTiter-Glo), AsPC-1; format: cell-based; conditions: AsPC-1, KRAS (p.G12D), 72 h; read-out: IC50, antiproliferative activity
Experimental: as §1, §2

| IC50 (HCT116) [nM] | IC50 (HepG2) [nM] | Kd [2] [nM] | IC50 (MV411) [nM] | Kd [3] [nM] | IC50 (SW480) [nM] | IC50 (H358) [nM] | Kd [4] [nM] | Kd (cyclophilin A (CypA)) [nM] | kon (cyclophilin A (CypA)) [M⁻¹ s⁻¹] | koff (cyclophilin A (CypA)) [s⁻¹] | IC50 (AsPC-1) [nM] | SMILES | IC50 (PSN1) [nM] | other results |
| --- | --- | --- | --- | --- | --- | --- | --- | --- | --- | --- | --- | --- | --- | --- |
| 0.44 | 0.04 | 26 | 0.12 | 16 | 0.03 | 0.007 | 24 | 3 | 130000 | 0.0004 | 0.02 | CO[C@@H](C)c1ncc(-c2nnc(C3CCN(C4COC4)CC3)o2)cc1-c1c2c3cc(ccc3n1CC(F)(F)F)-c1csc(n1)C[C@H](NC(=O)[C@H]1[C@H](C)[C@@H]1C)C(=O)N1CCC[C@H](N1)C(=O)OCC(C)(C)C2 (atropisomer, axis not shown) [Compound 6, (1r,2R,3S)—N-((6^3S,4S,Z)-1^2-(2-((S)-1-methoxyethyl)-5-(5-(1-(oxetan-3-yl)piperidin-4-yl)-1,3,4-oxadiazol-2-yl)pyridin-3-yl)-10,10-dimethyl-5,7-dioxo-1^1-(2,2,2-trifluoroethyl)-6^1,6^2,6^3,6^4,6^5,6^6-hexahydro-1^1H-8-oxa-2(4,2)-thiazola-1(5,3)-indola-6(1,3)-pyridazinacycloundecaphane-4-yl)-2,3-dimethylcyclopropane-1-carboxamide] | 0.04 | bioavailability ([1]; i.v. 1 mpk, p.o. 2 mpk): 43.1%; Vd ([1]; 1 mg/kg, i.v. 1 mpk): 1.14 L/kg; clearance ([1]; 1 mg/kg, i.v. 1 mpk): 2.6 mL/min/kg; AUC ([1]; 2 mg/kg, p.o. 2 mpk): 5630 ng·h/mL; Cmax ([1]; 2 mg/kg, p.o. 2 mpk): 439 ng/mL |
| 0.03 | 0.02 | 8.3 | 0.07 | 10 | 0.01 | 0.01 | 8.8 | 2 | 330000 | 0.00066 | 0.01 | CO[C@@H](C)c1ncc(-c2nnc(C3CCN(C4COC4)CC3)o2)cc1-c1c2c3cc(ccc3n1CC(F)(F)F)-c1csc(n1)C[C@H](NC(=O)C1[C@@H](C)[C@H]1C)C(=O)N1N[C@H](C(=O)OCC(C)(C)C2)C2CC1C2 (stereo partly drawn) [Compound 8] | 0.01 | bioavailability ([1]; i.v. 0.25 mpk, p.o. 0.5 mpk): 54.6%; Vd ([1]; i.v. 0.25 mpk): 1.84 L/kg; clearance ([1]; i.v. 0.25 mpk): 1.8 mL/min/kg; AUC ([1]; 0.5 mg/kg, p.o. 0.5 mpk): 2590 ng·h/mL; Cmax ([1]; 0.5 mg/kg, p.o. 0.5 mpk): 96 ng/mL |
